The text below walks through data of article PMC11866022, “Long-Chain Cyclic Arylguanidines as Multifunctional Serotonin Receptor Ligands with Antiproliferative Activity” (ACS Omega, 2025).

Where “and” joins values, the source holds several entries; their conditions need not be identical. Equal entries are not always repeated. Bounds are passed on as bounds.

In one data set the test system is 1321N1 astrocytoma cells. Briefly: Antiproliferative activity (MTS), 1321N1. It is filed as cell-based, human. To be noted: Homo sapiens, 1321-N1; MTS assay. As for the experimental part: (§1) These cell lines were characterized by different mutation profiles, the main one being the variable status of the p53 protein. In detail, U87MG cells have a wild-type p53 protein, while astrocytoma and the rest of GBM cells harbor mutated p53 protein. Additional assays were performed on MCF7 breast cancer and AsPC-1 pancreatic cancer cells. The wide range of tested lines was aimed at screening the anticancer potential of the tested compounds. The first represents one of the most common and the second one of the most aggressive cancers in the world. Comparing the activity of compounds on GBM cells to other types of cancer may reveal their selectivity and usefulness in targeted therapies. The cytotoxicity of the compounds on normal human astrocytes (NHA) and Feline catus astrocyte (PG-4) was determined. Tests on normal lines serve to verify the potential toxicity of the tested compounds on healthy cells. Due to the targeting of CNS tumors, astrocytes were selected as normal lines.
(§2) The detailed procedure is presented in previous publications.[53] […] Cells were cultured in appropriate media, supplemented with FBS, antibiotics, and other supplements, and incubated at 37 °C with 5% CO2. […] Cell viability was assessed using the MTS assay, and the inhibitory concentration (IC50) was calculated using GraphPad Prism 8.0. Each compound was tested in triplicate across multiple experiments.
Supplementary materials - Biological research […]

The target of a further data set is T1, 5-HT6 (Homo sapiens, UniProt P50406).
T1 construct: expressed in transfected cells; host or cells: HEK293
T1 sequence (P50406 whole entry): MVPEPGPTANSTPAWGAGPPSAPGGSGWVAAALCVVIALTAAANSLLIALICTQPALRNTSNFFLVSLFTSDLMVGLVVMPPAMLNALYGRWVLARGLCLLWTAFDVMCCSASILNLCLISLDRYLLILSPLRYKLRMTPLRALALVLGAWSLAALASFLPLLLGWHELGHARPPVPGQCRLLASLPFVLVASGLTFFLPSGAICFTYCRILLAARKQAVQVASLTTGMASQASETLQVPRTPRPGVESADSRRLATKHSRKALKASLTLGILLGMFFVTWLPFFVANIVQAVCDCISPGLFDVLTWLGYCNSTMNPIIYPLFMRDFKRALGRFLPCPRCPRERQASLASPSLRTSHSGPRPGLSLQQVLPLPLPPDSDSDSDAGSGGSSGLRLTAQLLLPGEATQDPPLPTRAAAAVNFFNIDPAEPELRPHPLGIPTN
The data set can be described thus: Radioligand binding assay, 5-HT6 ([3H]-LSD). To be noted: HEK293 cell line with human 5-HT6R; 2 nM [3H]-LSD. On the procedure: Ligand affinity for 5-HT6 receptors was subsequently tested with a radioligand binding assay, using the HEK293 cell line with human 5-HT6R, aiming to select compounds with the strongest affinity. Three compounds belonging to 2-naphthalenesulfonamide derivatives of 3,4-dihydroquinazolin-2-amines were obtained (Table 1).
The detailed procedure is presented in previous publications.[53] Assays were performed by incubating for 1 h at 37 °C (room temperature for 5-HT1A) in 200 μL volumes on 96-well plates. The reaction was terminated by rapid filtration using Unifilter plates, and radioactivity on the filters was measured with a PerkinElmer Microbeta plate reader. Radioligands used were:
Eight concentrations (10^–4 to 10^–11 M) were tested in triplicate for each compound. Inhibition constants (Ki) were calculated using the Cheng–Prusoff equation.[54] The results are expressed as the means of at least two independent experiments.

For a further data set, the system named is U87MG glioblastoma cells. The data set can be described thus: Antiproliferative activity (MTS), U87MG. It is filed as cell-based, human. The conditions noted are these: Homo sapiens, U-87 MG; MTS assay. On the procedure: as §1, §2
Supplementary materials - Biological research
B) U87MG glioblastoma multiforme line.
and U87MG glioblastoma multiforme line for C) PP 3; D) PP 6; E) PP 8; F) PP 10; G) PP 11; H) PP
Background: Tetrazolium assays rely on reduction of a dye to a coloured formazan, in cell work by metabolically active cells.

In another data set the test system is U-251 glioblastoma cells. Briefly: Antiproliferative activity (MTS), U-251. It is filed as cell-based, human. The conditions noted are these: Homo sapiens, U-251; MTS assay, 72 h. On the procedure: as §1, §2
Data set [1] relates to AsPC-1 pancreatic cancer cells. The data set can be described thus: Antiproliferative activity (MTS), AsPC-1. Format: cell-based, human. To be noted: Homo sapiens, ASPC1; MTS assay, 72 h. As for the experimental part:
as §1, with “The chosen group of ligands was further examined for their ability to inhibit proliferation across multiple cancer cell lines related to the CNS system (1321N1, U87MG, LN-229, and U-251). These” for “These”
The detailed procedure is presented in previous publications.[53] Briefly, the study utilized various human cancer and normal cell lines, including LN-229 (glioblastoma), MCF7 (breast carcinoma), HepG2 (hepatoma), U-251 (glioblastoma), U87MG (glioblastoma), AsPC-1 (pancreatic adenocarcinoma), and NHA (normal human astrocytes). Cells were cultured in appropriate media, supplemented with FBS, antibiotics, and other supplements, and incubated at 37 °C with 5% CO2. Compounds were dissolved in DMSO, prepared at various concentrations (1–25 μM), and applied to the cells for 72 h. Cell viability was assessed using the MTS assay, and the inhibitory concentration (IC50) was calculated using GraphPad Prism 8.0. Each compound was tested in triplicate across multiple experiments.

For the next data set, the system named is MCF7 breast cancer cells. The data set can be described thus: Antiproliferative activity (MTS), MCF7. To be noted: Homo sapiens, MCF7; MTS assay, 72 h. Format: cell-based, human. As for the experimental part: as §1, §2
The target in data set [2] is T2, human serum albumin (HSA) (Homo sapiens, UniProt P02768).
T2 construct: purchased
T2 sequence (P02768 25-609): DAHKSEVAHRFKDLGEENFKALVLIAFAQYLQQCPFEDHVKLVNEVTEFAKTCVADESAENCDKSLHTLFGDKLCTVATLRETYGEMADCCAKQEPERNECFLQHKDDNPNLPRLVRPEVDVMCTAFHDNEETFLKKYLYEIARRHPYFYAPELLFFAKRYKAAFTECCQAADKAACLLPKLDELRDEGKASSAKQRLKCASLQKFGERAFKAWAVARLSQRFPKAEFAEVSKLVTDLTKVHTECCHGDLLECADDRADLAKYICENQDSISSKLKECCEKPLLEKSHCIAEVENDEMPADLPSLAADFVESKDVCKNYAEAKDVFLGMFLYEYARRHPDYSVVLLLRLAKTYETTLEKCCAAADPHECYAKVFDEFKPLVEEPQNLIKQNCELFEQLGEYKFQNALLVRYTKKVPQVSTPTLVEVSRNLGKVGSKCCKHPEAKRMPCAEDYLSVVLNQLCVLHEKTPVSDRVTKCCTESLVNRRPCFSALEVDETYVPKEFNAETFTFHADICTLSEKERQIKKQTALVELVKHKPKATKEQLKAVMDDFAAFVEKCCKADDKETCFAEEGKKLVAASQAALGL
The data set can be described thus: HSA binding by biochromatography (HSA column). Format: in vitro ADME. The conditions noted are these: HSA column. On the procedure: (§3) Lipophilicity and affinity for phospholipids for each investigated molecule were assessed. Additionally, selected compounds with the highest biological activities have been characterized by their affinity plasma proteins. All experiments were performed using protocols developed by Valko.[35] These methods facilitated the calculation of chromatographic hydrophobicity indices (CHI) and plasma protein binding percentages (%PPB) in a biochromatographic experiment, with results compared to the reference. A detailed description of the experiments is provided in the Supporting Information (SI), along with the raw data. […] Although high lipophilicity may limit the medical use of the analyzed compounds since they may tend to accumulate excessively in the human body, it is remarkable that several clinically used drugs also have high lipophilicity. […] (Table 5).
(§4) The detailed procedure is presented in previous publications.[53] High-performance liquid chromatography (HPLC) analyses were conducted using the Prominence-1 LC-2030C 3D system (Shimadzu) with a DAD detector, employing three different chromatographic columns with specific stationary phases and mobile phases. The analysis was performed at 30 °C with a flow rate of 1.5 mL/min for IAM and C18 columns, and 0.9 mL/min for the Chiralpak column. Calibration standards for the columns were sourced from various suppliers and dissolved in dimethyl sulfoxide. Detection occurred in the UV range (190–300 nm) with a 5 μL injection volume. Each compound was analyzed in triplicate. Retention times for the tested compounds and calibration standards are provided in the Supporting Information (Tables S1 and S2).

Data set [3] has as its system LN-229 glioblastoma cells. The data set can be described thus: Antiproliferative activity (MTS), LN-229. It is filed as cell-based, human. The conditions noted are these: Homo sapiens, LN-229; MTS assay, 72 h. On the procedure:
as §1, §2

Data set [4] is described as follows: Affinity to phospholipids, CHI IAM (Valko protocol). It is filed as physicochemical. The conditions noted are these: IAM column. As for the experimental part:
as §3, §4

Data set [5] is described as follows: Lipophilicity, chromatographic hydrophobicity index on C18 (Valko protocol). Format: physicochemical. On the procedure: as §3, §4
A short description of data set [6]: Metabolic stability in mouse liver microsomes. To be noted: MLMs, 120 min. It is filed as in vitro ADME. From the text: Moving on to the next parameter, which is metabolism, we determined metabolic stability, using mouse liver microsomes (MLMs). […]
Main metabolic pathways are marked in red.
In general terms: Liver microsomes are a subcellular fraction often used to study metabolism.

Take `COc1cccc2c1C(=O)c1c(O)c3c(c(O)c1C2=O)C[C@@](O)(C(=O)CO)C[C@@H]3O[C@H]1C[C@H](N)[C@H](O)[C@H](C)O1` [Doxorubicin, reference compound]: inhibition in the data set on 1321N1 astrocytoma cells was half-maximal at 1.1 µM (IC50).
`O=S(=O)(c1ccc2ccccc2c1)N1CCN(C2=Nc3ccccc3CN2)CC1` [PP 1, 2-[4-(Naphthalene-2-sulfonyl)piperazin-1-yl]-3,4-dihydroquinazoline]: affinity at 5-HT6 was put at a Ki of 8.66 ± 2.16 µM.
The same measure, in the same setting: next, `O=S(=O)(NCCCCNC1=NCc2ccccc2N1)c1ccc2ccccc2c1` [PP 2, N-{4-[(1,4-Dihydroquinazolin-2-yl)amino]butyl}naphthalene-2-sulfonamide]: 0.616 ± 0.154 µM.
For the compound `O=S(=O)(NCCCCCCNC1=NCc2ccccc2N1)c1ccc2ccccc2c1` [PP 3, N-{6-[(1,4-Dihydroquinazolin-2-yl)amino]hexyl}naphthalene-2-sulfonamide], at 5-HT6, the Ki (commonly a dissociation constant, usually derived from enzyme kinetics or from competition with a known ligand) turned out to be 0.201 ± 0.05 µM. Moreover, the IC50 (usually the concentration that inhibits the measured activity by half) in the data set with 1321N1 astrocytoma cells was 13.3 ± 0.1 µM; in the data set with U87MG glioblastoma cells, 12 ± 0.9 µM.
Compound `O=S(=O)(NCCNC1=Nc2ccccc2CN1)c1cccc2ccccc12` [PP 4, N-{2-[(3,4-Dihydroquinazolin-2-yl)amino]ethyl}naphthalene-1-sulfonamide] showed a Ki on 5-HT6 of 4.33 ± 1.08 µM. Further, the IC50 (in the data set with U-251 glioblastoma cells; in the data set on 1321N1 astrocytoma cells; in data set [1]; with MCF7 breast cancer cells; in [3]; with U87MG glioblastoma cells) was more than 25 µM in each case. In addition, the “%HSA” value in data set [2] turned out to be 94.8%. Further, in [2], the logKHSA is 1.18 and 1.2. Besides, the “CHI IAM” value in [4] is reported as 50.2. The “CHI C18 pH 2.6” value in data set [5] worked out at 64.9. Moreover, in data set [5], the “CHI C18 pH 7.4” value stood at 79.9. Besides, the “CHI C18 pH 10.5” value in data set [5] is 101.9.
Take `O=S(=O)(c1cccc2ccccc12)N1CCN(C2=Nc3ccccc3CN2)CC1` [PP 5, 2-[4-(Naphthalene-1-sulfonyl)piperazin-1-yl]-3,4-dihydroquinazoline]: the affinity at 5-HT6, expressed as Ki, was 3.49 ± 0.872 µM.
Take `O=S(=O)(NCCCCNC1=Nc2ccccc2CN1)c1cccc2ccccc12` [PP 7, N-{4-[(3,4-Dihydroquinazolin-2-yl)amino]butyl}naphthalene-1-sulfonamide]: the affinity on 5-HT6 corresponds to a Ki of 0.697 ± 0.174 µM. This Ki is about 5-fold lower than that of the compound before.
Take `O=S(=O)(NCCCCCCNC1=Nc2ccccc2CN1)c1cccc2ccccc12` [PP 8, N-{6-[(3,4-Dihydroquinazolin-2-yl)amino]hexyl}naphthalene-1-sulfonamide]: the affinity at 5-HT6 corresponds to a Ki of 0.098 ± 0.025 µM. For the same compound, the IC50 was more than 25 µM with U-251 glioblastoma cells; 18.4 ± 2.9 µM in the data set with 1321N1 astrocytoma cells; more than 25 µM in [1]; more than 25 µM in the data set on MCF7 breast cancer cells; more than 25 µM in [3]; 24.5 ± 1.4 µM in the data set with U87MG glioblastoma cells.
In turn, `CC1NC(NCCNS(=O)(=O)c2cccc3ccccc23)=Nc2ccccc21` (stereo not drawn) [PP 9, N-{2-[(4-Methyl-3,4-dihydroquinazolin-2-yl)amino]ethyl}naphthalene-1-sulfonamide] displayed a Ki at 5-HT6 of 2.42 ± 0.605 µM.
`CC1NC(NCCCCCCNS(=O)(=O)c2cccc3ccccc23)=Nc2c(Cl)cc(Cl)cc21` (stereo not drawn) [PP 12, N-{6-[(6,8-Dichloro-4-methyl-3,4-dihydroquinazolin-2-yl)amino]hexyl}naphthalene-1-sulfonamide]: the Ki on 5-HT6 turned out to be 0.208 ± 0.052 µM. This compound also had an IC50 in the data set with 1321N1 astrocytoma cells of 5.7 ± 0.1 µM. In addition, in data set [2], the “%HSA” value is 99.7% and the logKHSA came to 1.9. Moreover, the “metabolic stability, % of remaining” value in data set [6] stood at 76.87%. The compound also yielded an IC50 in the data set on U87MG glioblastoma cells of 9.5 ± 0.7 µM. For the same compound, the “CHI IAM” value in data set [4] was determined as 59.4. In addition, in data set [5], the “CHI C18 pH 2.6” value was found to be 97.1, the “CHI C18 pH 7.4” value came to 111.2 and the “CHI C18 pH 10.5” value is given as 121.8.
`O=S(=O)(NCCCCCCNc1ncccn1)c1cccc2ccccc12` [PP 16, N-{6-[(Pyrimidin-2-yl)amino]hexyl}naphthalene-1-sulfonamide]: on 5-HT6, the Ki stood at 3.1 ± 0.776 µM. In addition, the IC50 (in the data set with U-251 glioblastoma cells; in data set [1]; in the data set on MCF7 breast cancer cells; in data set [3]) was more than 25 µM throughout.
For `c1ccc(CNc2nc3ccccc3[nH]2)cc1` [PP 17, N-Benzyl-1H-1,3-benzimidazol-2-amine], on 5-HT6, the “5-HT6 Ki” value is reported as “did not show any affinity” and the Ki was 31.9 ± 7.96 µM.
Taken in the same sequence, the figures for `c1ccc(CCNc2nc3ccccc3[nH]2)cc1` [PP 18, N-(2-Phenylethyl)-1H-1,3-benzimidazol-2-amine] were “did not show any affinity” and 19.8 ± 4.95 µM.
`c1ccc2c(c1)CNC(NCCc1cccc3ccccc13)=N2` [PP 19, N-[2-(Naphthalen-1-yl)ethyl]-3,4-dihydroquinazolin-2-amine]: the Ki on 5-HT6 came out at 1.87 ± 0.46 µM. The IC50 (with U-251 glioblastoma cells; in data set [1]; with MCF7 breast cancer cells; in data set [3]) was more than 25 µM in each case.
As to `c1ccc2c(N3CCN(c4nc5ccccc5[nH]4)CC3)cccc2c1` [PP 20, 2-[4-(Naphthalen-1-yl)piperazin-1-yl]-1H-1,3-benzodiazole], the “5-HT6 Ki” value at 5-HT6 is given as “did not show any affinity”. This compound registered a Ki on 5-HT6 of 5.05 ± 1.26 µM. In addition, the IC50 (in the data set with U-251 glioblastoma cells; in data set [1]; in the data set with MCF7 breast cancer cells; in [3]) was more than 25 µM each time.
Consider `c1ccc2c(c1)CNC(NCCCCCCNc1nsc3ccccc13)=N2` [PP 23, N6-(1,2-Benzothiazol-3-yl)-N1-(3,4-dihydroquinazolin-2-yl)hexane-1,6-diamine], for which the Ki at 5-HT6 is 0.975 ± 0.244 µM.
